Source: publication PMC1373645, “Lactate production yield from engineered yeasts is dependent from the host background, the lactate dehydrogenase source and the lactate export” (Microbial Cell Factories, 2006)

Target: T1, bovine Ldh-A (BtLDH) (Bos taurus, UniProt P19858)
T1 construct: gene LDHA; full length, untagged, expressed in S. cerevisiae GRF18U; crude cell extract; homotetramer
Test: LDH activity of crude yeast extract with added lactate (Sigma kit DG1340-UV)
Format: biochemical
Details: read-out: % inhibition at 10 g/l

An inhibition at 10000 µg/mL of ~40% was found for `C[C@H](O)C(=O)O` [lactate] in this work.
